Laboratory results taken from patent publication US10881110B2, “Herbicidal compositions comprising isoxazolo[5,4-b]pyridines” (BASF SE, priority 2014, dated 2021).
Where two headings read alike, the source gives them in different places.

Tests used:
Assay in all cases: greenhouse post-emergence herbicidal test
MATCH = assay type: in vivo, Matricaria recutita; set-up: key to herbicidal activity against MATCH found: rating on a scale from 0 to 100; conditions: post emergence
Summary of the method: (§1)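 Herbicidal activity scored on a 0 (no damage) to 100 (plants destroyed) scale, usually 20 days after water-based spraying of 1–15 cm plants grown in loamy sand at 10-25 °C or 20-35 °C depending on species. Components were applied from 10% emulsion concentrates; Colby's E=X+Y−(X·Y/100) gives the additive expectation.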

LOLMU = assay type: in vivo, Lolium multiflorum
Procedure: The culture containers used were plastic pots containing medium loamy sand with approximately 4.6% of humus and 69.9% sand as substrate. The seeds of the test plants were sown separately for each species.
For the post-emergence treatment, the test plants were grown to a plant height of from 1 to 15 cm, depending on the plant habit, and only then treated with the active compounds which had been suspended or emulsified in water. To this end, the test plants were either sown directly, and grown in the same containers, or they were first grown separately as seedlings and transplanted into the test containers a few days prior to treatment.
Depending on the species, the plants were kept at 10-25° C. and 20-35° C., respectively.
The test period extended over 1 to 3 weeks. During this time, the plants were tended and their response to the individual treatments was evaluated 20 days after treatment except mentioned otherwise.
Evaluation was carried out using a scale from 0 to 100. 100 means no emergence of the plants, or complete destruction of at least the above-ground parts, and 0 means no damage or normal course of growth.
The respective stated components A and B, and, if appropriate, C, were formulated as a 10% by weight strength emulsion concentrate and, with addition of the amount of solvent system, introduced into the spray liquor used for applying the active compound. In the examples, the solvent used was water.
In the examples below, using the method of S. R. Colby (1967) “Calculating synergistic and antagonistic responses of herbicide combinations”, Weeds 15, p. 22 ff., the value E, which is expected if the activity of the individual active compounds is only additive, was calculated. E=X+Y−(X·Y/100)

PAPRH = assay type: in vivo, Papaver rhoeas; set-up: key: rating on a scale from 0 to 100
Summary of the method: as §1

GERDI = assay type: in vivo, Geranium dissectum; conditions: Geranium dissectum, post-emergence, 480 h, post emergence, read-out: herbicidal activity against GERDI found
Summary of the method: as §1

[1] = I.1 31.25 g/ha, B.95 1 g/ha a.i.
[2] = a.i. g/ha: I.1 31.25, B.67 125, 20 days after treatment
[3] = a.i. g/ha: I.1 62.5, B.67 125, 20 days after treatment
[4] = application rate a.i.: I.1 62.5 g/ha, B.87 (carfentrazone-ethyl) 1.75 g/ha, alone or as mixture (composition 1.87)
[5] = applied alone at 31.25 g/ha a.i.

`O=C(O)c1cc(C2CC2)nc2onc(C3CC3)c12` [I.1] gave a pest or weed control at 31.25 g/ha (MATCH; Matricaria chamomilla, post-emergence, 480 h, I.1 alone 31.25 g/ha a.i., read-out: herbicidal activity against MATCH found) of 0%, a pest or weed control at 125 g/ha (MATCH; Matricaria chamomilla, post-emergence, 480 h, I.1 alone 125 g/ha a.i., read-out: herbicidal activity against MATCH found) of 0% and a pest or weed control at 62.5 g/ha (MATCH; Matricaria chamomilla, post-emergence, 480 h, 62.5 g/ha a.i., read-out: herbicidal activity against MATCH found) of 50%. It also gave a pest or weed control at 31.25 g/ha (MATCH; Matricaria chamomilla, post-emergence, 480 h, I.1 31.25 g/ha a.i., read-out: herbicidal activity against MATCH found) of 20%, a pest or weed control at 62.5 g/ha (MATCH; Matricaria chamomilla, post-emergence, 480 h, I.1 62.5 g/ha a.i., read-out: herbicidal activity against MATCH found) of 30% and a pest or weed control at 31.25 g/ha (MATCH; Matricaria chamomilla, post-emergence, 480 h, single active, 31.25 g/ha a.i., read-out: herbicidal activity against MATCH found) of 15%. The pest or weed control at 62.5 g/ha (MATCH; Matricaria chamomilla, post-emergence, 480 h, single active, 62.5 g/ha a.i., read-out: herbicidal activity against MATCH found) was 60%, the “herbicidal activity against MATCH found” value (MATCH; 6 days after treatment, g/ha a.i.: I.1 31.25, naptalam 50, mixture 31.25+50) was 0 and the “herbicidal activity against MATCH found” value (MATCH; 6 days after treatment, g/ha a.i.: I.1 31.25, naptalam 100, mixture 31.25+100) was 0. For the same compound, the “herbicidal activity against MATCH found” value (MATCH; 6 days after treatment, g/ha a.i.: I.1 62.5, naptalam 50, mixture 62.5+50) was 10, the “herbicidal activity against MATCH found” value (MATCH; I.1 15.62 g/ha, B.95 1 g/ha a.i.) was 10 and the “herbicidal activity against MATCH found” value (MATCH; [1]) was 10. For the same compound, the “herbicidal activity against MATCH found” value (MATCH; I.1 31.25 g/ha, B.95 2 g/ha a.i.) was 10, the “herbicidal activity against MATCH found” value (MATCH; I.1 62.5 g/ha, B.167 62.5 g/ha a.i.) was 0 and the “herbicidal activity against MATCH found” value (MATCH; I.1 62.5 g/ha, B.167 125 g/ha a.i.) was 0. For the same compound, the “herbicidal activity against MATCH found” value (MATCH; I.1 62.5 g/ha, B.95 2 g/ha a.i.) was 65, the “herbicidal activity against MATCH found” value (MATCH; a.i. g/ha: I.1 20.8, B.192 62.5, 20 days after treatment) was 60% and the “herbicidal activity against MATCH found” value (MATCH; a.i. g/ha: I.1 20.8, B.79 25, 20 days after treatment) was 60%. The “herbicidal activity against MATCH found” value (MATCH; [2]) was 30%, the “herbicidal activity against MATCH found” value (MATCH; a.i. g/ha: I.1 31.25, B.67 125, 20 days after treatment, sub-table r36-r43) was 30% and the “herbicidal activity against MATCH found” value (MATCH; a.i. g/ha: I.1 31.25, B.69 25, 20 days after treatment) was 30%. For the same compound, the “herbicidal activity against MATCH found” value (MATCH; a.i. g/ha: I.1 62.5, B.191 225, 20 days after treatment) was 30%, the “herbicidal activity against MATCH found” value (MATCH; [3]) was 0% and the “herbicidal activity against MATCH found” value (MATCH; application rate a.i.: I.1 20.8 g/ha, B.107 (topramezone) 6 g/ha, alone or as mixture (composition 1.107)) was 60. For the same compound, the “herbicidal activity against MATCH found” value (MATCH; application rate a.i.: I.1 31.25 g/ha, B.87 (carfentrazone-ethyl) 1.75 g/ha, alone or as mixture (composition 1.87)) was 35, the “herbicidal activity against MATCH found” value (MATCH; application rate a.i.: I.1 62.5 g/ha, B.84 (paraquat-dichloride) 17.5 g/ha, alone or as mixture (composition 1.84)) was 80 and the “herbicidal activity against MATCH found” value (MATCH; [4]) was 80. For the same compound, the “herbicidal activity against MATCH found” value (MATCH; [5]) was 25, the “herbicidal activity against MATCH found” value (MATCH; g/ha a.i.: I.1 31.25, B.24 2, mixture 31.25+2) was 25 and the “herbicidal activity against MATCH found” value (MATCH; g/ha a.i.: I.1 125, B.24 2, mixture 125+2) was 75. For the same compound, the “herbicidal activity against MATCH found” value (MATCH; g/ha a.i.: I.1 125, B.63 0.5, mixture 125+0.5) was 75, the “herbicidal activity against LOLMU found” value (LOLMU; a.i. g/ha: I.1 7.8, B.67 125, 20 days after treatment) was 0% and the “herbicidal activity against LOLMU found” value (LOLMU; a.i. g/ha: I.1 15.6, B.67 125, 20 days after treatment) was 0%. For the same compound, the “herbicidal activity against LOLMU found” value (LOLMU; [2]) was 0%, the “herbicidal activity against LOLMU found” value (LOLMU; a.i. g/ha: I.1 62.5, B.67 62.5, 20 days after treatment) was 40% and the “herbicidal activity against LOLMU found” value (LOLMU; [3]) was 20%. The “herbicidal activity against LOLMU found” value (LOLMU; a.i. g/ha: I.1 62.5, B.77 75, 20 days after treatment) was 20%, the “herbicidal activity against PAPRH found” value (PAPRH; 62.5 g/ha a.i.) was 50 and the “herbicidal activity against PAPRH found” value (PAPRH; I.1 15.62 g/ha, B.103 15 g/ha a.i.) was 30. For the same compound, the “herbicidal activity against PAPRH found” value (PAPRH; I.1 15.62 g/ha, B.88 2 g/ha a.i.) was 70, the “herbicidal activity against PAPRH found” value (PAPRH; I.1 31.25 g/ha, B.103 15 g/ha a.i.) was 30 and the “herbicidal activity against PAPRH found” value (PAPRH; I.1 31.25 g/ha, B.88 1 g/ha a.i.) was 75. For the same compound, the “herbicidal activity against PAPRH found” value (PAPRH; I.1 31.25 g/ha, B.88 2 g/ha a.i.) was 75, the “herbicidal activity against PAPRH found” value (PAPRH; [1]) was 75 and the “herbicidal activity against PAPRH found” value (PAPRH; I.1 62.5 g/ha, B.57 2 g/ha a.i.) was 75. For the same compound, the “herbicidal activity against PAPRH found” value (PAPRH; I.1 62.5 g/ha, B.88 1 g/ha a.i.) was 75, the “herbicidal activity against PAPRH found” value (PAPRH; I.1 62.5 g/ha, B.88 2 g/ha a.i.) was 75 and the “herbicidal activity against PAPRH found” value (PAPRH; I.1 62.5 g/ha, B.95 1 g/ha a.i.) was 75. For the same compound, the “herbicidal activity against PAPRH found” value (PAPRH; I.1 alone 31.25 g/ha a.i.) was 70, the “herbicidal activity against PAPRH found” value (PAPRH; application rate a.i.: I.1 62.5 g/ha, B.40 (imazethapyr) 7.5 g/ha, alone or as mixture (composition 1.40)) was 65 and the “herbicidal activity against PAPRH found” value (PAPRH; [4]) was 85. For the same compound, the “herbicidal activity against PAPRH found” value (PAPRH; [5]) was 65, the pest or weed control at 62.5 g/ha (GERDI; 62.5 g/ha a.i.) was 90% and the pest or weed control at 31.25 g/ha (GERDI; I.1 31.25 g/ha a.i.) was 50%. It also gave a pest or weed control at 62.5 g/ha (GERDI; I.1 62.5 g/ha a.i.) of 55%, a pest or weed control at 15.625 g/ha (GERDI; single active, 15.625 g/ha a.i.) of 0% and a pest or weed control at 31.25 g/ha (GERDI; single active, 31.25 g/ha a.i.) of 10%.
